Measurements reported in US10927123B2, “Modulators of the beta-3 adrenergic receptor useful for the treatment or prevention of disorders related thereto” (Arena Pharmaceuticals, Inc., priority 2016, dated 2021).

Target: Beta-3 Adrenergic Receptor (Homo sapiens (Human), UniProt P13945)
Experiment: HTRF cAMP antagonist assay (IC50 determination)
Type: cell-based
Conditions: CHO-K1 cells stably expressing recombinant receptor; antagonism of isoproterenol at EC90; cAMP readout
How it was run: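 CHO-K1 cells stably expressing receptor, 1500 cells/well, preincubated briefly with 10-point 5-fold compound series (top final typically 10 or 100 μM) in PBS with 1 mM IBMX, then challenged with isoproterenol at EC90 for 1 h at room temperature. cAMP read by HTRF against on-plate standard curve; IC50 from dose-response.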

Beta-3 Adrenergic Receptor, sequence (P13945 whole entry, species assumed): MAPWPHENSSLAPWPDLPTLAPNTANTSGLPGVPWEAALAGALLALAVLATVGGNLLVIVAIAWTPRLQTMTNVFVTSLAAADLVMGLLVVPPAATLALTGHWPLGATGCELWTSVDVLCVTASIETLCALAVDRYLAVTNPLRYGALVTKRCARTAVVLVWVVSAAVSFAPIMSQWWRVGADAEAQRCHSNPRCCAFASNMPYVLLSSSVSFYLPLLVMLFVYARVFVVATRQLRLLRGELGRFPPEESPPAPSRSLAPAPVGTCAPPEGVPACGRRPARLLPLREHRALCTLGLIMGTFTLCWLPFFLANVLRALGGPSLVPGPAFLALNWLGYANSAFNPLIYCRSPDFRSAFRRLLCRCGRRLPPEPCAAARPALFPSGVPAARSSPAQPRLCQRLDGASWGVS

IC50 [nM] | Compound
16.5 | O=S(=O)(c1cccc(OC[C@@H](O)CN[C@H]2COC3(CCN(S(=O)(=O)c4cnc5cn[nH]c5c4)CC3)C2)c1)C1CC1 [Compound 319, (S)-1-((R)-8-(1H-pyrazolo[4,3-b]pyridin-6-ylsulfonyl)-1-oxa-8-azaspiro[4.5]decan-3-ylamino)-3-(3-(cyclopropylsulfonyl)phenoxy)propan-2-ol]
374 | O=S(=O)(c1cccc(-c2ccc(CN3CCC3)cc2)c1)N1CCC2(CC1)C[C@@H](NC[C@H](O)COc1cccc(S(=O)(=O)C3(CO)CC3)c1)CO2 [Compound 265, (S)-1-((R)-8-(4′-(azetidin-1-ylmethyl)biphenyl-3-ylsulfonyl)-1-oxa-8-azaspiro[4.5]decan-3-ylamino)-3-(3-(1-(hydroxymethyl)cyclopropylsulfonyl)phenoxy)propan-2-ol]
227 | CN1CCOc2ncc(S(=O)(=O)N3CCC4(CC3)C[C@@H](NC[C@H](O)COc3cccc(S(=O)(=O)CCCO)c3)CO4)cc21 [Compound 150, 3-(3-((S)-2-hydroxy-3-((R)-8-(1-methyl-2,3-dihydro-1H-pyrido[2,3-b][1,4]oxazin-7-ylsulfonyl)-1-oxa-8-azaspiro[4.5]decan-3-ylamino)propoxy)phenylsulfonyl)propan-1-ol]
416 | Cc1ccc(-c2cccc(S(=O)(=O)N3CCC4(CC3)C[C@@H](NC[C@H](O)COc3cccc(S(=O)(=O)C5(CO)CC5)c3)CO4)c2)cc1 [Compound 170, (S)-1-(3-(1-(hydroxymethyl)cyclopropylsulfonyl)phenoxy)-3-((R)-8-(4′-methylbiphenyl-3-ylsulfonyl)-1-oxa-8-azaspiro[4.5]decan-3-ylamino)propan-2-ol]
24.2 | O=S(=O)(CCC(F)(F)F)c1cccc(OC[C@@H](O)CNC2COC3(CCN(S(=O)(=O)c4ccc5ccccc5c4)CC3)C2)c1 (stereo partly drawn) [Compound 9, (2S)-1-(8-(naphthalen-2-ylsulfonyl)-1-oxa-8-azaspiro[4.5]decan-3-ylamino)-3-(3-(3,3,3-trifluoropropylsulfonyl)phenoxy)propan-2-ol]
75 | O=S(=O)(CCO)c1cccc(OC[C@@H](O)CN[C@H]2COC3(CCN(S(=O)(=O)c4ccc5ncccc5c4)CC3)C2)c1 [Compound 93, (S)-1-(3-(2-hydroxyethylsulfonyl)phenoxy)-3-((R)-8-(quinolin-6-ylsulfonyl)-1-oxa-8-azaspiro[4.5]decan-3-ylamino)propan-2-ol]
58.4 | CCOc1ccc(-c2ccc(C(C)(C)CN)cc2)cc1S(=O)(=O)N1CCC2(CC1)C[C@H](NC[C@H](O)COc1cccc(S(=O)(=O)C3(CO)CC3)c1)CO2 [Compound 176, (S)-1-((S)-8-(4′-(1-amino-2-methylpropan-2-yl)-4-ethoxybiphenyl-3-ylsulfonyl)-1-oxa-8-azaspiro[4.5]decan-3-ylamino)-3-(3-(1-(hydroxymethyl)cyclopropylsulfonyl)phenoxy)propan-2-ol]
5.47 | CS(=O)(=O)c1cccc(OC[C@@H](O)CN[C@H]2COC3(CCN(S(=O)(=O)c4ccc5ccccc5c4)CC3)C2)c1 [Compound 3, (S)-1-(3-(methylsulfonyl)phenoxy)-3-((R)-8-(naphthalen-2-ylsulfonyl)-1-oxa-8-azaspiro[4.5]decan-3-ylamino)propan-2-ol]
27.8 | CCCNCc1ccc(-c2cccc(S(=O)(=O)N3CCC4(CC3)C[C@H](NC[C@H](O)COc3cccc(S(=O)(=O)C5(CO)CC5)c3)CO4)c2)cc1 [Compound 244, (S)-1-(3-(1-(hydroxymethyl)cyclopropylsulfonyl)phenoxy)-3-((S)-8-(4′-((propylamino)methyl)biphenyl-3-ylsulfonyl)-1-oxa-8-azaspiro[4.5]decan-3-ylamino)propan-2-ol]
24.7 | CN1CCOc2ncc(S(=O)(=O)N3CCC4(CC3)C[C@@H](NC[C@H](O)COc3cccc(S(C)(=O)=O)c3)CO4)cc21 [Compound 152, (S)-1-((R)-8-(1-methyl-2,3-dihydro-1H-pyrido[2,3-b][1,4]oxazin-7-ylsulfonyl)-1-oxa-8-azaspiro[4.5]decan-3-ylamino)-3-(3-(methylsulfonyl)phenoxy)propan-2-ol]
39.7 | Cn1cnc2cc(S(=O)(=O)N3CCC4(CC3)C[C@@H](NC[C@H](O)COc3cccc(S(=O)(=O)C5CC5)c3)CO4)cnc21 [Compound 279, (S)-1-(3-(cyclopropylsulfonyl)phenoxy)-3-((R)-8-(3-methyl-3H-imidazo[4,5-b]pyridin-6-ylsulfonyl)-1-oxa-8-azaspiro[4.5]decan-3-ylamino)propan-2-ol]
97.3 | COCCCS(=O)(=O)c1cccc(OC[C@@H](O)CN[C@H]2COC3(CCN(S(=O)(=O)c4cnc5ccccc5c4)CC3)C2)c1 [Compound 149, (S)-1-(3-(3-methoxypropylsulfonyl)phenoxy)-3-((R)-8-(quinolin-3-ylsulfonyl)-1-oxa-8-azaspiro[4.5]decan-3-ylamino)propan-2-ol]
23.6 | O=S(=O)(c1cccc(OC[C@@H](O)CNC2COC3(CCN(S(=O)(=O)c4ccc5ccccc5c4)CC3)C2)c1)C1COC1 (stereo partly drawn) [Compound 24, (2S)-1-(8-(naphthalen-2-ylsulfonyl)-1-oxa-8-azaspiro[4.5]decan-3-ylamino)-3-(3-(oxetan-3-ylsulfonyl)phenoxy)propan-2-ol]
17.8 | CS(=O)(=O)c1cccc(OC[C@@H](O)CN[C@@H]2COC3(CCN(S(=O)(=O)c4cnc5ccccc5c4)CC3)C2)c1 [Compound 85, (S)-1-(3-(methylsulfonyl)phenoxy)-3-((S)-8-(quinolin-3-ylsulfonyl)-1-oxa-8-azaspiro[4.5]decan-3-ylamino)propan-2-ol]
34.3 | CS(=O)(=O)c1cccc(OC[C@@H](O)CNC2COC3(CCN(S(=O)(=O)c4ccc(Cl)c5nonc45)CC3)C2)c1 (stereo partly drawn) [Compound 30, (2S)-1-(8-(7-chlorobenzo[c][1,2,5]oxadiazol-4-ylsulfonyl)-1-oxa-8-azaspiro[4.5]decan-3-ylamino)-3-(3-(methylsulfonyl)phenoxy)propan-2-ol]
87 | CS(=O)(=O)c1cccc(OC[C@@H](O)CNC2COC3(CCN(S(=O)(=O)c4cccnc4)CC3)C2)c1 (stereo partly drawn) [Compound 46, (2S)-1-(3-(methylsulfonyl)phenoxy)-3-(8-(pyridin-3-ylsulfonyl)-1-oxa-8-azaspiro[4.5]decan-3-ylamino)propan-2-ol]
54.7 | CN1CCOc2ccc(S(=O)(=O)N3CCC4(CC3)C[C@@H](NC[C@H](O)COc3cccc(S(=O)(=O)CCO)c3)CO4)cc21 [Compound 84, (S)-1-(3-(2-hydroxyethylsulfonyl)phenoxy)-3-((R)-8-(4-methyl-3,4-dihydro-2H-benzo[6][1,4]oxazin-6-ylsulfonyl)-1-oxa-8-azaspiro[4.5]decan-3-ylamino)propan-2-ol]
12.5 | CCOc1ccc(-c2ccc(CN)cc2)cc1S(=O)(=O)N1CCC2(CC1)C[C@H](NC[C@H](O)COc1cccc(S(=O)(=O)CC)c1)CO2 [Compound 226, (S)-1-((S)-8-(4′-(aminomethyl)-4-ethoxybiphenyl-3-ylsulfonyl)-1-oxa-8-azaspiro[4.5]decan-3-ylamino)-3-(3-(ethylsulfonyl)phenoxy)propan-2-ol]
126 | O=S(=O)(CCO)c1cccc(OC[C@@H](O)CN[C@H]2COC3(CCN(S(=O)(=O)c4cccc(-c5ncccc5F)c4)CC3)C2)c1 [Compound 126, (S)-1-((R)-8-(3-(3-fluoropyridin-2-yl)phenylsulfonyl)-1-oxa-8-azaspiro[4.5]decan-3-ylamino)-3-(3-(2-hydroxyethylsulfonyl)phenoxy)propan-2-ol]
